Measurements published in US6849633B2, “Pyrazole derivative, production process thereof, and pest control agent containing the same as active ingredient” (Nihon Nohyaku Co., Ltd., priority 1999, dated 2005).

Key:
Assay type in all cases: in vivo
[1] = test system: imagoes of adzuki bean weevil (Callosobruchus chinensis); assay: Insecticidal effect on imagoes of adzuki bean weevil (spray, Test Example 4); conditions: 500 ppm, emulsion sprayed, 25° C., after 4 days
Experimental: Insecticidal Effect on Imagoes of Adzuki Bean Weevil (Callosobruchus chinensis)
Two adzuki beans were put in a glass cylinder (inner diameter: 3 cm×length: 15 cm), and 10 imagoes of Callosobruchus chinensis were set free therein. An agricultural and horticultural insecticide of the invention was prepared in accordance with Formulation Example 3 and diluted with water, and 0.3 ml of the resulting emulsion was sprayed in the glass cylinder by means of a spray tower (manufactured by Mizuho Rika) (duplicates at a concentration). The cylinder was kept in a constant temperature room at 25° C., and the mortality and agony of the larvae were examined after 4 days from the treatment to obtain a death rate (%) taking an agonizing insect as a ½ dead insect. The results obtained are shown in Table 5 (the compound numbers in the Table correspond to the numbers in Table 1).

[2] = test system: larvae of green peach aphid (Myzus persicae); assay: Insecticidal effect on larvae of green peach aphid (leaf dip, Test Example 5); conditions: 500 ppm, leaves dipped about 5 seconds, 25° C., 4th day after treatment
Experimental: Insecticidal Effect on Larvae of Green Peach Aphid (Myzus persicae)
Water was put in a screw bottle (volume: 10 ml), and a leafstalk of Japanese radish was placed therein and inoculated with 5 to 6 imagoes of Myzus persicae per leave. After the inoculation, the bottle was put in a glass cylinder (diameter: […]; height: 15 cm) with a mesh cover, and the insects were let to proliferate in a constant temperature room kept at 25° C. for 3 days. The imagoes on the leaves were removed, and the leaves were dipped in an aqueous dilusion of an agricultural and horticultural insecticide prepared of the invention in accordance with Formulation Example 3 for about 5 seconds and then returned into the glass cylinder (duplicates at a concentration). The cylinder was kept in the constant temperature room at 25° C., and the number of the insects on the leaves was counted on the 4th day after the treatment to obtain a death rate (%). The results obtained are shown in Table 6 (the compound numbers in the Table correspond to the numbers in Table 1).

cat flea = assay: Insecticidal effect on cat flea (treated filter, Test Example 8); conditions: 0.7 mg/filter; mortality examined on 1st day and 2nd day after treatment
Source text: Insecticidal Effect on Cat Flea
After drying, the filter was placed on the bottom of a cylinder (diameter: 10 cm×height: 30 cm). Ten fleas were set free therein and the mortality was examined on 1st day and 2nd day after the treatment to calculate a death rate (%) based on the results. The results are shown in Table 9 (the compound numbers in the table correspond to the numbers in Table 1).

[3] = test system: larvae of common cutworm (Spodoptera litura); assay: Insecticidal effect on larvae of common cutworm (leaf disc, Test Example 3); conditions: 500 ppm, cabbage leaf disc soaked 1 minute, 3-instar larvae, 25° C., after 5 days
Experimental: Insecticidal Effect on Larvae of Common Cutworm (Spodoptera litura)
(§1) A disc (6 cm in diameter) cut out of a cabbage leaf was soaked for 1 minute in an aqueous suspension of an agricultural and horticultural insecticide of the invention prepared in accordance with Formulation Example 1, air-dried, and placed in a plastic cup (inner diameter: 7 cm). Five 3-instar larvae of Spodoptera litura were set free in the cup (duplicates at a concentration). The cup was kept in a constant temperature room at 25° C., and the death and agony of the larvae were examined after 5 days from the treatment to obtain a death rate (%) taking an agonizing insect as a ½ dead insect. The results obtained are shown in Table 4 (the compound numbers in the Table below correspond to the numbers in Table 1).

[4] = test system: larvae of brown rice planthopper (Nilaparvata lugens); assay: Insecticidal effect on larvae of brown rice planthopper, rice roots in agent solution (systemic, Test Example 6); conditions: for Death Rate (%) at Each Concentration of Active Ingrediet: 4th day; for insecticidal activity through systemic property (in words): summary of root-uptake test against brown rice planthopper
Experimental: (§2) Insecticidal Effect on Larvae of Brown Rice Planthopper (Nilaparvata lugens)
Roots of young rice seedlings (height: about 10 cm) planted in a plastic cup were washed with water and soil was washed away so as not to damage the fine roots. The stem was pinched by a urethane tip (diameter: 3 cm, height: 2 cm) having a cut line and the roots were inserted into an Erlenmeyer flask to which 50 ml of an agent solution (an aqueous diluted solution of agricultural and horticultural insecticide of the invention prepared in accordance with Formulation Example 1) was placed beforehand (2 to 3 young rice seedlings/flask). The urethane tip was wedged into the mouse of the flask to fix the rice seedlings. A glass tube (diameter: 3 cm, height: 5 cm) was placed thereon, wedged into the urethane tip, and fixed with a tape. The flask in such state was kept in a constant temperature room at 25° C. for 3 days. Five larvae of brown rice planthopper were placed in the glass tube and then the tube was capped with a urethane tip, followed by keeping in the constant temperature room at 25° C. (duplicates at a concentration). The mortality and agony of the larvae were examined on 4th day after the treatment to obtain a death rate (%) taking an agonizing insect as a ½ dead insect. This test was carried out on three agent solutions different in the concentration of the active ingredient. The results are shown in Table 7 (the compound numbers in the table correspond to the numbers in Table 1).
As comparative compounds I to V, each compound having a structure shown below (Compound I described in Japanese Patent Laid-Open No. 316771/1988, Compounds II and III described in Examples of WO9845274, and Compounds IV and V included in the claim of WO9845274 but not included in the claim of the present application) was similarly subjected to the test. [drawing 36]
Brown rice planthopper (Nilaparvata lugens) is a highly problematic pest insect species which is harmful as described in Test Example 1, but a sufficient effect can not be attained by the application method of spraying an agent to stems and leafs, provided that the detection is delayed or that an enough amount of the agent is not spread to the roots.
Since this insect species has a characteristic of making its habitat around the roots of rice plant or the like and harming the plant through sucking fluid, more efficient method of controlling the insect may be a method of treating the surface of soil with an agent (granule treatment) before the outbreak of the species occurs widely. However, in order to attain a high controlling effect, a systemic property (a penetrating and migrating property) into a plant body is required as the nature of the agent.

[5] = test system: larvae of diamond back moth (Plutella xylostella); assay: Insecticidal effect on larvae of diamond back moth (leaf disc, Test Example 2); conditions: 500 ppm, cabbage leaf disc soaked 1 minute, 3-instar larvae, 25° C., after 4 days
Experimental: Insecticidal Effect on Larvae of Diamond Back Moth (Plutella xylostella)
as §1, with “of the” for “of an”, “of Plutella xylostella” for “of Spodoptera litura”, “after 4” for “after 5”, “Table 3” for “Table 4”

[6] = test system: larvae of brown rice planthopper (Nilaparvata lugens); assay: Insecticidal effect on larvae of brown rice planthopper (spray, Test Example 1); conditions: 500 ppm, emulsion sprayed, 4th instar larvae, 25° C., after 5 days; agonizing insect counted as 1/2 dead
Experimental: as §2
A rice seedling was planted in a glass cylinder (inner diameter: 3 cm×length: 17 cm), and five 4th instar larvae of brown rice planthopper were set free therein. An agricultural and horticultural insecticide of the invention was prepared in accordance with Formulation Example 3 and diluted with water, and 0.5 ml of the resulting emulsion was sprayed into the cylinder by means of a spraying tower (manufactured by Mizuho Rika) (duplicates at a concentration). The cylinder was kept in a constant temperature room at 25° C., and the mortality and agony of the larvae were examined after 5 days from the treatment to obtain a death rate (%) taking an agonizing insect as a ½ dead insect. The results obtained are shown in Table 2 (the compound numbers in Table 2 correspond to the numbers in Table 1).

Oryzias latipes = assay: Test on toxicity to fish using Oryzias latipes (Test Example 7); conditions: death rate, 0.5 ppm aqueous solution, adult Oryzias latipes, after 48 hours
Experimental: Test on Toxicity to Fish Using Oryzias latipes
This test example is one example for examining safety of agricultural and horticultural insecticides to the environment.
Ten mg of each compound was dissolved in 1 ml of dimethyl sulfoxide and a 0.05 ml portion thereof was added to a glass beaker containing 1 liter of distilled water to obtain a 0.5 ppm aqueous solution. Into the aqueous solution was put five fishes of Oryzias latipes (adult, average weight: about 360 mg) and the mortality was examined after 48 hours to calculate a death rate (%) (5 fishes per 1 lot/beaker, single run). The results are shown in Table 8 (the compound numbers in the table correspond to the numbers in Table 1).
Similar to Test Example 6, Compound I described in Japanese Patent Laid-Open No. 316771/1988, Compounds II and III described in Examples of WO9845274, and Compounds IV and V included in the claim of WO9845274 but not included in the claim of the present application were subjected to the test, as comparative compounds.

[7] = 0.2 ppm agent solution at rice roots
[8] = 0.8 ppm agent solution at rice roots
[9] = 3.1 ppm agent solution at rice roots

Compound | Death Rate (%) [1] [%] | Death Rate (%) [2] [%] | Death Rate (%) (cat flea) | Death Rate (%) [3] [%] | Death Rate (%) at Each Concentration of Active Ingrediet [4, 7] [%] | Death Rate (%) at Each Concentration of Active Ingrediet [4, 8] [%] | Death Rate (%) at Each Concentration of Active Ingrediet [4, 9] [%] | Death Rate (%) [5] [%] | Death Rate (%) [6] [%] | insecticidal activity through systemic property (in words) [4] | Toxicity to fish (%) (Oryzias latipes)
N#Cc1nn(-c2c(Cl)cc(C(F)(F)F)cc2Cl)c(NCc2cnccn2)c1[S+]([O-])C(F)(F)F (stereo not drawn) [Compound 5, 1-(2,6-dichloro-4-trifluoromethylphenyl)-4-trifluoromethylsulfinyl-5-(pyrazin-2-ylmethylamino)pyrazole-3-carbonitrile] | 100 | 100 | 100 | 100 | 100 | 100 | 100 | 100 | 100 |  | 
N#Cc1nn(-c2c(Cl)cc(C(F)(F)F)cc2Cl)c(N)c1[S+]([O-])C(F)(F)F (stereo not drawn) [I] |  |  |  |  | 33 | 67 | 92 |  |  | obviously inferior effect | 100
C[S+]([O-])c1c(C#N)nn(-c2c(Cl)cc(C(F)(F)F)cc2Cl)c1NCc1cnccn1 (stereo not drawn) [Compound 1, 1-(2,6-dichloro-4-trifluoromethylphenyl)-4-methylsulfinyl-5-(pyrazin-2-ylmethylamino)pyrazole-3-carbonitrile] | 100 | 100 |  |  | 100 | 100 | 100 | 100 | 100 |  | 0
CSc1c(C#N)nn(-c2c(Cl)cc(C(F)(F)F)cc2Cl)c1NCc1cnccn1 [IV] |  |  |  |  | 100 | 100 | 100 |  |  | high systemic property | 100
1-(2,6-dichloro-4-trifluoromethylphenyl)-4-trifluoromethylsulfinyl-5-(1-oxy-pyridin-3-ylmethylamino)pyrazole-3-carbonitrile [Compound 14] | 100 | 100 |  | 100 | 100 | 100 | 100 | 100 | 100 |  | 0
N#Cc1nn(-c2c(Cl)cc(C(F)(F)F)cc2Cl)c(NCc2cc[n+]([O-])cc2)c1SC(F)(F)F [III] |  |  |  |  | 92 | 100 | 100 |  |  |  | 60
N#Cc1nn(-c2c(Cl)cc(C(F)(F)F)cc2Cl)c(NCc2ccncc2)c1SC(F)(F)F [II] |  |  |  |  |  | 20 | 50 |  |  | obviously inferior effect | 80
N#Cc1nn(-c2c(Cl)cc(C(F)(F)F)cc2Cl)c(NCc2cnccn2)c1SC(F)(F)F [V] |  |  |  |  | 55 | 80 | 95 |  |  |  | 100
